Experimental data taken from patent publication US20060035905A1, “Formulations of phosphodiesterase 5 inhibitors and methods of use” (Becton, Dickinson and Company, priority 2004, published 2006).
Where two headings read alike, the source gives them in different places. Marks after values point to notes of the source that are not given here.

Assays:
in vivo = test: in vivo; design: species or system Sprague-Dawley rats; conditions: rat
Method: Animal surgery: The rat's femoral vein was cannulated for blood sampling for every group. For IN rats, an incision was made in the trachea and a polypropylene tube was inserted as an airway. To seal the pass way between the nasal cavity and trachea, a sealed tube was inserted through the same incision into the posterior of nasal cavity. Finally the nasopalatine was closed with an adhesive.
Blood samples were drawn from the femoral vein at predetermined time points.
20 μl of 12% perchloric acid was added to 80 μl rat serum followed by vortexing. Then 100 μl of water was added to achieve the sample volume required by HPLC assay.

[1] = for Clearance: dose normalized; for Bioavailability: versus IV mesylate
[2] = IV, up to last sampling time point

CCCc1nn(C)c2c(=O)[nH]c(-c3cc(S(=O)(=O)N4CCN(C)CC4)ccc3OCC)nc12 [sildenafil]
Cmax (in vivo; Sprague-Dawley): 547 ng/mL
concentration at 5 min (in vivo; Sprague-Dawley): 428 ng/mL
time of maximum systemic concentration (in vivo; Sprague-Dawley): around 15 min
time of peak serum concentration (in vivo; Sprague-Dawley): approximately 10 minutes
Cmax (in vivo; Sprague-Dawley, Cmax): ~1000 ng/mL
maximum serum drug level (in words) (in vivo; sc): comparable maximum serum drug level to the ID group
time of Cmax (in vivo; sc): 30 to 60 min

sildenafil acetate
MRT ([1]; ID 1.5 mm): 1.85 h
Terminal t½ ([1]; ID 1.5 mm): 2.19 h

sildenafil mesylate
MRT ([1]; ID 1.5 mm): 1.90 h
Terminal t½ ([1]; ID 1.5 mm): 2.27 h
Tmax ([1]; ID 1.5 mm): 0.083^c hr
Clearance ([1]; ID 1.5 mm): 2537.01 mL/h/kg
AUC ([1]; ID 1.5 mm, up to last sampling time point): 116.21 ng·h/mL
Bioavailability ([1]; ID 1.5 mm): 56.95^c %
Bioavailability ([1]; ID 1.5 mm, listed as mesylate salt): ~55%
Cmax ([1]; ID 1.5 mm, ~5 mg sildenafil, average): 93.13 ng/mL
MRT ([1]; ID 2.0 mm): 2.27 h
Terminal t½ ([1]; ID 2.0 mm): 3.83 h
Tmax ([1]; ID 2.0 mm): 0.18 h
Clearance ([1]; ID 2.0 mm): 2143.21 mL/h/kg
AUC ([1]; ID 2.0 mm, up to last sampling time point): 133.56 ng·h/mL
Bioavailability ([1]; ID 2.0 mm): 66.79^c %
Cmax ([1]; ID 2.0 mm, ~5 mg sildenafil, average): 70.98 ng/mL
Terminal t½ ([1]; IV): 3.01 h
Clearance ([1]; IV): 1413.48 mL/h/kg
AUC [1, 2]: 229.41 ng·h/mL
MRT [1, 2]: 1.90 h
Cmax ([1]; IV, ~5 mg sildenafil, average): 307.35 ng/mL
Tmax ([1]; IV, ~5 mg sildenafil, average): 0.0^b hr
MRT ([1]; SC): 2.43 h
Terminal t½ ([1]; SC): 2.84 h
Tmax ([1]; SC): 0.12 h
Clearance ([1]; SC): 2740.31 mL/h/kg
AUC ([1]; SC, up to last sampling time point): 120.13 ng·h/mL
Bioavailability ([1]; SC): 54.77^c %
Bioavailability ([1]; SC, listed as mesylate salt): ~55%
Cmax ([1]; SC, ~5 mg sildenafil, average): 111.28 ng/mL
